The subject of experiment [1] is Pseudotyped HCV GT1b particles (HCVpp), entry into Huh7-high CD81 cells. Put plainly: microbe, parasite or virus in culture. It is filed as cell-based, HCV GT1b Con1 strain. To be noted: Hepatitis C virus, GT1B, 72 h, read-out: HCVpp GT-1b (EC50, μM).
Experiment [2] relates to pseudotyped VSV G particles (VSVpp) in Huh7-high CD81 cells. Kind of experiment: microbe, parasite or virus in culture. The experiment is classed as cell-based, vesicular stomatitis virus. The conditions noted are these: Vesicular stomatitis virus, 72 h, read-out: VSVpp (EC50, μM).

Counter-ions that a name gives are not always drawn.

The text below walks through data of patent publication US9693997B2, “Antiviral compounds” (priority 2013, dated 2017).

As for `Nc1n[nH]c(Nc2cc(F)c(-c3ccc(S(=O)(=O)N4CCOCC4)cc3)c(C(F)(F)F)c2)n1` [Compound 78, N^5-[6-Fluoro-4′-(morpholine-4-sulfonyl)-2-trifluoromethylbiphenyl-4-yl]-1H-[1,2,4]-triazole-3,5-diamine], the concentration giving a half-maximal response (EC50) (commonly the concentration giving half of the maximal effect) in experiment [1] came to 0.346 µM; in experiment [2], 8.18 µM.

For the molecule `CN(C)C(=O)c1ccc(-c2c(F)cc(Nc3nc(N)n[nH]3)cc2C(F)(F)F)cc1` [Compound 85, 4′-(5-Amino-2H-[1,2,4]-triazol-3-ylamino)-6′-fluoro-2′-trifluoromethyl-biphenyl-4-carboxylic acid dimethylamide], the values for the half-maximal effective concentration (EC50) in experiment [1] and in experiment [2] were 0.568 µM and > 10 µM, respectively.

For `Nc1n[nH]c(Nc2cc(F)c(-c3ccc(S(=O)(=O)C(F)(F)F)cc3)c(C(F)(F)F)c2)n1` [Compound 88, N^5-[6-Fluoro-4′-trifluoromethanesulfonyl-2-trifluoromethylbiphenyl-4-yl]-1H-[1,2,4]-triazole-3,5-diamine], the EC50 was found to be 1.95 µM in experiment [1] and 25.2 µM in experiment [2].

Consider `CS(=O)(=O)c1ccc(-c2c(F)cc(Nc3n[nH]c(N)n3)cc2Cl)cc1` [Compound 30, N*3*-(2-Chloro-6-fluoro-4′-methanesulfonyl-biphenyl-4-yl)-1H-[1,2,4]triazole-3,5-diamine], for which the concentration for a half-maximal effect (EC50) was 0.107 µM in experiment [1] and 1.53 µM in experiment [2].

As to `Nc1nc(Nc2ccc(-c3ccccc3Cl)c(C(F)(F)F)c2)n[nH]1` [Compound 153, N*3*-(2′-Chloro-2-trifluoromethyl-biphenyl-4-yl)-1H-[1,2,4]triazole-3,5-diamine], the 50% effective concentration (EC50) in experiment [1] was 1.81 µM; in experiment [2] it was 9.61 µM.

`CC(C)(C)OC(=O)N1CCC[C@H]1COc1ccc(-c2c(Cl)cc(Nc3n[nH]c(N)n3)cc2Cl)cc1` [Compound 280, (S)-2-[4′-(5-Amino-1H-[1,2,4]triazol-3-ylamino)-2′,6′-dichloro-biphenyl-4-yloxymethyl]-pyrrolidine-1-carboxylic acid tert-butyl ester]: the EC50 in experiment [1] is 0.401 µM; in experiment [2], > 10 µM.

For `CC(C)C(=O)Nc1ccc(-c2c(Cl)cc(Nc3n[nH]c(N)n3)cc2Cl)cc1` [Compound 251, N-[4′-(5-amino-1H-[1,2,4]triazol-3-ylamino)-2′,6′-dichloro-biphenyl-4-yl]-isobutyramide], the 50% effective concentration (EC50) worked out at 0.041 µM in experiment [1] and 32.5 µM in experiment [2].

`CNC(=O)c1ccc(-c2c(Cl)cc(Nc3n[nH]c(N)n3)cc2C(F)(F)F)cc1F` [Compound 291, 4′-(5-amino-1H-1,2,4-triazol-3-ylamino)-2′-chloro-3-fluoro-N-methyl-6′-(trifluoromethyl)biphenyl-4-carboxamide]: the EC50 amounted to 0.325 µM in experiment [1] and 21.5 µM in experiment [2].

Regarding `CC(C)(C)OC(=O)[C@@H]1CCCN1S(=O)(=O)c1ccc(-c2c(Cl)cc(Nc3n[nH]c(N)n3)cc2C(F)(F)F)cc1` [Compound 3, (S)-1-[4′-(5-Amino-1H-[1,2,4]triazol-3-ylamino)-2′-chloro-6′-trifluoromethyl-biphenyl-4-sulfonyl]-pyrrolidine-2-carboxylic acid tert-butyl ester], the concentration giving a half-maximal response (EC50) turned out to be 0.005 µM in experiment [1] and 4.37 µM in experiment [2].

As to `Nc1nc(Nc2cc(Cl)c(-c3ccc(OCC(O)CO)cc3)c(Cl)c2)n[nH]1` (stereo not shown) [Compound 282, 3-[4′-(5-Amino-1H-[1,2,4]triazol-3-ylamino)-2′,6′-dichloro-biphenyl-4-yloxy]-propane-1,2-diol-diamine], the concentration for a half-maximal effect (EC50) worked out at 0.213 µM in experiment [1] and 39.7 µM in experiment [2].

In the case of `COc1ccc(-c2c(Cl)cc(Nc3n[nH]c(N)n3)cc2C(F)(F)F)cc1S(=O)(=O)N(CC(F)(F)F)C1CCNCC1` [Compound 234, 4′-(5-Amino-1H-[1,2,4]triazol-3-ylamino)-6′-chloro-4-methoxy-2′-trifluoromethyl-biphenyl-3-sulfonic acid piperidin-4-yl-(2,2,2-trifluoro-ethyl)-amide; compound with trifluoro-acetic acid], the half-maximal effective concentration (EC50) was 0.005 µM in experiment [1] and > 10 µM in experiment [2].

`CS(=O)(=O)c1ccc(-c2ccc(Nc3n[nH]c(N)n3)cc2C(F)(F)F)cc1` [Compound 90, N3-(4′-(methylsulfonyl)-2-(trifluoromethyl)biphenyl-4-yl)-1H-1,2,4-triazole-3,5-diamine]: the concentration for a half-maximal effect (EC50) in experiment [1] stood at 0.875 µM; in experiment [2], 15.7 µM.

For the molecule `Nc1nc(Nc2cc(Cl)c(-c3ccc(S(=O)(=O)C[C@@H]4CCCN4)cc3)c(C(F)(F)F)c2)n[nH]1` [Compound 35, N*3*-[2-Chloro-4′-((S)-1-pyrrolidin-2-ylmethanesulfonyl)-6-trifluoromethyl-biphenyl-4-yl]-1H-[1,2,4]triazole-3,5-diamine; hydrochloride], the half-maximal effective concentration (EC50) in experiment [1] was determined as 0.127 µM; in experiment [2] it was 4.79 µM.

As to `NC(=O)c1cccc(-c2c(Cl)cc(Nc3n[nH]c(N)n3)cc2Cl)c1` [Compound 158, 4′-(5-amino-1H-1,2,4-triazol-3-ylamino)-2′,6′-dichlorobiphenyl-3-carboxamide], the EC50 is 0.539 µM in experiment [1] and > 10 µM in experiment [2].

For `Nc1nc(Nc2cc(Cl)c(-c3ccc(O[C@H]4CCNC4)cc3)c(Cl)c2)n[nH]1` [Compound 271, N*3*-[2,6-Dichloro-4′-((S)-pyrrolidin-3-yloxy)-biphenyl-4-yl]-1H-[1,2,4]triazole-3,5-diamine], the half-maximal effective concentration (EC50) came to 0.12 µM in experiment [1] and 4.39 µM in experiment [2].

As for `Nc1nc(Nc2cc(Cl)c(-c3ccc(OC4CCCN(CCC(F)(F)F)C4)cc3)c(C(F)(F)F)c2)n[nH]1` (stereo not shown) [Compound 133, N*3*-{6-Chloro-2-trifluoromethyl-4′-[1-(3,3,3-trifluoro-propyl)-piperidin-3-yloxy]-biphenyl-4-yl}-1H-[1,2,4]triazole-3,5-diamine hydrochloride], the EC50 is 0.13 µM in experiment [1] and > 10 µM in experiment [2].

Consider `CC(C)(C)N1Cc2ccc(-c3c(Cl)cc(Nc4n[nH]c(N)n4)cc3C(F)(F)F)cc2S1(=O)=O` [Compound 10, N*3*-[4-(2-tert-Butyl-1,1-dioxo-2,3-dihydro-1H-1lambda*6*-benzo[d]isothiazol-6-yl)-3-chloro-5-trifluoromethyl-phenyl]-1H-[1,2,4]triazole-3,5-diamine], for which the half-maximal effective concentration (EC50) in experiment [1] is 0.015 µM; in experiment [2], > 10 µM.

With `Nc1nc(Nc2cc(Cl)c(-c3ccc(OC[C@@H]4CCCN4)cc3)c(C(F)(F)F)c2)n[nH]1` [Compound 270, N*3*-[6-Chloro-4′-((S)-1-pyrrolidin-2-ylmethoxy)-2-trifluoromethyl-biphenyl-4-yl]-1H-[1,2,4]triazole-3,5-diamine], the concentration for a half-maximal effect (EC50) is 0.117 µM in experiment [1] and 33.3 µM in experiment [2].

Regarding `CS(=O)(=O)c1cccc(-c2c(Cl)cc(Nc3n[nH]c(N)n3)cc2C(F)(F)F)c1` [Compound 195, N3-(2-chloro-3′-(methylsulfonyl)-6-(trifluoromethyl)biphenyl-4-yl)-1H-1,2,4-triazole-3,5-diamine], the 50% effective concentration (EC50) worked out at 0.212 µM in experiment [1] and 39.7 µM in experiment [2].

On to `CC1(C)CS(=O)(=O)c2cc(-c3c(Cl)cc(Nc4n[nH]c(N)n4)cc3Cl)ccc2O1` [Compound 52, N*3*-[3,5-Dichloro-4-(2,2-dimethyl-4,4-dioxo-3,4-dihydro-2H-4lambda*6*-benzo[1,4]oxathiin-6-yl)-phenyl]-1H-[1,2,4]triazole-3,5-diamine], for which the concentration for a half-maximal effect (EC50) in experiment [1] is 0.64 µM; in experiment [2], > 10 µM.
